# Data published in the supplement of paper PMC10307832.
# Columns and labels:
# Experiment in all cases: relative viability (nuclei count vs DMSO), 5 days (fraction); higher = more cells survive
# [1] = compound: Cn1cnc2c(F)c(Nc3ccc(Br)cc3Cl)c(C(=O)NOCCO)cc21 [Selumetinib] + CC(C)C[C@H](NC(=O)[C@H](Cc1ccccc1)NC(=O)c1cnccn1)B(O)O [Bortezomib] (partner 0.002 µM)
# Method in brief: (§1)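 For relative viability, nuclei counts in treated wells were divided by those in vehicle wells. Lung cancer cell lines had been pin-tool dosed in 1536-well plates the day after seeding and cultured for 5 days, then fixed and stained in one step (final 0.05% Triton X-100, 1% formaldehyde, 1 ug/ml Hoechst) and imaged at 4×. Doses were one drug alone or a fixed anchor-drug dose plus five library-drug doses (not always all listed) in √10 steps, and values are duplicate-plate medians.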
# [2] = compound: Cn1cnc2c(F)c(Nc3ccc(Br)cc3Cl)c(C(=O)NOCCO)cc21 [Selumetinib] + C[C@@H](Oc1cc(-c2cnn(C3CCNCC3)c2)cnc1N)c1c(Cl)ccc(F)c1Cl [Crizotinib] (partner 1 µM)
# Method in brief: as §1
# [3] = compound: Cn1cnc2c(F)c(Nc3ccc(Br)cc3Cl)c(C(=O)NOCCO)cc21 [Selumetinib] + Nc1ncn([C@H]2C[C@H](O)[C@@H](CO)O2)c(=O)n1 [Decitabine] (partner 2 µM)
# Method in brief: as §1
# [4] = compound: Cn1cnc2c(F)c(Nc3ccc(Br)cc3Cl)c(C(=O)NOCCO)cc21 [Selumetinib] + O=C(c1cc(Cc2n[nH]c(=O)c3ccccc23)ccc1F)N1CCN(C(=O)C2CC2)CC1 [Olaparib] (partner 8 µM)
# Method in brief: as §1
cell line,measurement,setting,value
UMC-11,relative viability,[1]; first compound 0.02 µM,0.685
same,relative viability,[1]; first compound 0.06325 µM,0.589
same,relative viability,[1]; first compound 0.2 µM,0.974
same,relative viability,[1]; first compound 0.6325 µM,0.848
same,relative viability,[2]; first compound 0.02 µM,0.686
same,relative viability,[2]; first compound 0.06325 µM,0.594
same,relative viability,[2]; first compound 0.2 µM,0.515
same,relative viability,[2]; first compound 0.6325 µM,0.645
same,relative viability,[3]; first compound 0.02 µM,0.653
same,relative viability,[3]; first compound 0.06325 µM,0.624
same,relative viability,[3]; first compound 0.2 µM,0.619
same,relative viability,[3]; first compound 0.6325 µM,0.643
same,relative viability,[4]; first compound 0.02 µM,0.32
same,relative viability,[4]; first compound 0.06325 µM,0.33
same,relative viability,[4]; first compound 0.2 µM,0.384
same,relative viability,[4]; first compound 0.6325 µM,0.914
